From article PMC3731988 (Molecular microbiology, 2013)

Target: T1, threonine dehydrogenase (Tdh) (Escherichia coli, UniProt P07913)
T1 sequence (P07913 1-341): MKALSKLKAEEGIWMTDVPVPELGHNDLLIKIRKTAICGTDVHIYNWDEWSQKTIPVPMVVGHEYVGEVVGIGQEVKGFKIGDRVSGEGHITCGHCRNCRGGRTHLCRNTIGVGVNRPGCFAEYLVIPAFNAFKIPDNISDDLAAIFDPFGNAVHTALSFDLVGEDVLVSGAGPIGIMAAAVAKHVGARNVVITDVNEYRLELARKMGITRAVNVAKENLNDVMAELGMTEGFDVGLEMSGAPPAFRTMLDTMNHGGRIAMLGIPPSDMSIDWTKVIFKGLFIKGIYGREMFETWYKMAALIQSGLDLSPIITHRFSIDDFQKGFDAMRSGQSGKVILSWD
Assay: NADH formation at […] nm
Format: biochemical
Conditions: Fe(II)-loaded enzyme; 30 mM threonine, 1 mM NAD+, 50 mM Tris-HCl pH 8.4, 25 °C, anaerobic

Q: For `C[C@@H](O)[C@H](N)C(=O)O` [threonine], which “NADH formation at 340 nm” value is on record?
A: Tdh oxidizes threonine, with the production of NADH that can be monitored
